The values below come from patent US9499484B2, “Indole, indoline derivatives, compositions comprising them and uses thereof” (priority 2012, dated 2016).

In test [1] the test system is rat cardiac myoblasts (H9c2). As to the kind of experiment: Protection against H2O2-induced cell death in cardiomyocytes, Alamar Blue. Conditions: concentration(s) giving >50% protection. The test is classed as cell-based. On the procedure:
C. Measurement of Protective Activity Against Oxidative Stress in Cell Cultures
Compounds of the invention were tested for their potential to protect against cell death induced by oxidative stress in a cell line derived from rat cardiac myoblasts (H9c2) (Hescheler et al., 1991). Cells were cultured in Dulbecco's Modified Eagle's Medium (DMEM), 4500 mg/L D-glucose with 10% foetal calf serum (FCS), 10000 U/mL penicillin, […] streptomycin and 25 μg/mL Amphotericin B at 37° C. with 95% air and 5% CO2. One day prior to the measurement, cells were seeded in 96 well-plates at a density of 5,000 cells/well and incubated with 100 μM H2O2 for 1 h. […] Cells were incubated with different compounds of the invention in several concentrations ranging from 0.0001-100 μM, for 1, 4 or 7 h prior to addition of H2O2. Cell viability was measured by means of Alamar Blue (AbD Serotec, BUF012A). In order to compare the protective effect of the compounds this degree of cell death was normalized to 100% in each experiment. The effect of the drugs is expressed as percent reduction of this value.

Test [2] in a line: Radical scavenging, glucose oxidase/luminol luminescence. The test is classed as biochemical. Conditions: concentration reducing luminescence/radical by 50%; mean ± SD, three independent experiments. As for the experimental part:
A. Measurement of Radical Scavenging
A mixture comprising glucose oxidase (GO), luminol, sodium selenite [IV] ([…]) and cobalt [II] (Co^+2) all in Hank's Balance Salt Solution (HBSS) was used (Ginsburg et al, 2004). The production of H2O2 produces a burst of luminescence within 30-60 sec, which lasts for 7-10 min. The luminescence involves oxidation of SEL+5 to it SEL+6 and also the generation of oxidants, which are catalyzed by Co^+2. This method mimics infection and inflammation conditions in which there is an accumulation of several oxidant species. This method provides a source of several radicals. Reduction in luminescence by the compounds is due to their ability to sequester radicals and was measured after addition of several concentrations of each compound. The concentration of each compound that reduced the luminescence by 50% was calculated.

A further test addresses T1, BuChE (UniProt P81908).
T1 construct: 120 min incubation; BuChE IC50
Format: biochemical, human or equine serum. Conditions: read-out: IC50 BuChE 120 min; Table 3; 120 min incubation. As for the experimental part:
(§1) B. Measurement of Acetylcholinesterase (AChE) and Butylcholinesterase (BuChE) Inhibition In Vitro
(§2) The enzyme was incubated at 37° C. with 6-10 concentrations of the compounds tested and samples were collected at 15, 30, 60 and 120 min Aliquots were transferred to an Elisa multiscan microplate reader (Labsystems) at 15-60 sec time intervals for the determination of residual AChE activity, with Ascent PC software. […] The % inhibition of AChE by each concentration was calculated by comparison with the activity of the enzyme in the absence of drug. […] BuChE-inhibitory activity was determined as described above using BuChE (Sigma Israel) with butylthiocholine iodide (BuTh) 0.075M as a substrate.

Another test has as its system TNF-α, RAW 264.7 cells. Description: TNF-α reduction in LPS-stimulated RAW 264.7 macrophages. Format: cell-based, mouse.
For test [3], the system named is NO, BV2 mouse microglial cells. As to the kind of experiment: NO reduction in LPS-stimulated BV2 microglia. Format: cell-based. Conditions: for Reduction in NO levels by at >20%, BV2 Microglia range: concentration range, None = no reduction up till 100 nM. On the procedure: (§3) The BV2 mouse microglial cells were created by infecting primary mouse microglia with v-raf/v-myc oncogen-carrying retrovirus and donated by Dr. Sigal Fleisher—Berkovich (Ben-Gurion University of the Negev). The cells were cultured in RPMI 1640 containing 0.4 mM L-Glutamine, 10% FCS, 100 units/ml penicillin, 100 μg/ml streptomycin and maintained in a humidified incubator at 37° C. with 5% CO2. For measurement of the effect of compounds on the release of NO the cells were seeded in a density of 80,000 cells/ml and confluence of about 60%, and incubated with test compounds (in the absence of FCS) for […] All the medium was removed and fresh medium containing FCS and LPS (10 μg/ml) added and the cells maintained at 37° C. for 24 h. The release of NO into the medium was determined by measurement of nitrite levels using Griess reagent reaction. For measurement of protein levels of cytokines cells were seeded in a density of 80,000 and incubated with test compounds (in the absence of FCS) and then with LPS as described above. The medium was centrifuged and supernatants collected after 6 h for TNF-α (Biolegend) and after 20 h for IL-6 (Biolegend).

Another test deals with NO, RAW 264.7 cells. Description: NO reduction in LPS-stimulated RAW 264.7 macrophages. The test is classed as cell-based, mouse.
The subject of test [4] is TNF-α, BV2 mouse microglial cells. Description: TNF-α reduction in LPS-stimulated BV2 microglia. Format: cell-based. Conditions: for Reduction in TNF-α levels, BV2 Microglia range: concentration range, None = no reduction up till 100 nM. As for the experimental part: as §3
A short description of another test: Radical scavenging, Sin1. Format: biochemical. Conditions: mean ± SD, three independent experiments.
Test [5] concerns ChE (AChE, BuChE) in plasma, muscle, spleen, brain. Conditions: after ip and or oral administration in mice.
Method: E. Acetylcholinesterase (AChE) and Butylcholinesterase (BuChE) Inhibition Ex Vivo
Compounds of the invention or saline were administrated by intraperitoneal (ip) injection or gavage to groups of 6-7 male ICR or Balb C mice (5-6 weeks of age). The mice were sacrificed 15, 30, 60 or 120 min after drug administration and the brain (minus cerebellum), spleen, and muscle were rapidly removed, weighed and put on ice. Blood was also collected in heparinised tubes, centrifuged at 14000 rpm at room temperature for 4 mM to provide plasma. Phosphate buffer pH 7 was added to each tissue to produce concentrations of 1 mg/mL for brain and spleen and 8 mg/mL for muscle. The tissues were homogenised in cold phosphate buffer pH 7 containing 0.1% Triton and centrifuged at 14000 rpm. Aliquots of plasma and the supernatant of all tissues were incubated with AcTh or BuTh and DTNB in phosphate buffer pH 7 and the rate of development of the yellow colour was measured as described above. Enzyme activity was measured for each time and drug concentration and percent inhibition of the AChE or BuChE activity was calculated by comparison with that of control mice injected with saline. Results are represented as p moles acetylthiocholine or butythiocholine hydrolysed/min/gm tissue.
For the next test, the target named is T2, AChE (UniProt P23795).
T2 sequence (P23795 1-613): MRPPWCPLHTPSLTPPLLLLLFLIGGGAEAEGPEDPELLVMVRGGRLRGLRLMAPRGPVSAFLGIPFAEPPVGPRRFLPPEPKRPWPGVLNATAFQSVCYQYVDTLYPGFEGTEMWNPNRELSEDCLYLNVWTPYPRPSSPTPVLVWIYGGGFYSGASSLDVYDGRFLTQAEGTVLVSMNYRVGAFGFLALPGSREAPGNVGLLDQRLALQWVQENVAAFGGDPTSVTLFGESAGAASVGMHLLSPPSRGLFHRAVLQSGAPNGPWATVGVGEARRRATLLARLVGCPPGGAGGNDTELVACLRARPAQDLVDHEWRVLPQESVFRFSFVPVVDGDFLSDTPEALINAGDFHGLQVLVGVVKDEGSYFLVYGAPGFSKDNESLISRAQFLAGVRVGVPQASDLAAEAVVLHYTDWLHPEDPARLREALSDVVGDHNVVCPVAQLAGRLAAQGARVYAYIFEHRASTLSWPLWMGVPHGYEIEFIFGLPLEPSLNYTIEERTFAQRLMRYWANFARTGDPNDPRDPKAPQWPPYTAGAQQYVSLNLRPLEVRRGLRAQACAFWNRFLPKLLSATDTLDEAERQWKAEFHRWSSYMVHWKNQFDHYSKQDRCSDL
Format: biochemical, human or bovine erythrocytes. The note with it: Table 3; 120 min incubation; read-out: IC50 AChE 120 min. As for the experimental part:
as §1, §2

The mark [6] stands for this setting: cells in μM, no effect ≦ 100 μM given as >100.
[7] abbreviates: concentration range; None = no reduction up till 100 nM.

Structures can show the parent of a compound that is named as a salt. Where two headings read alike, the source gives them in different places.

For `COC(=O)CCC1CNc2cc(OC(=O)N(C)c3ccc(OC)cc3)ccc21` (stereo not shown) [AN-685, Methyl 3-(6-((4-methoxyphenyl)(methyl)carbamoyloxy)indolin-3-yl)propanoate hydrochloride], the “Cardiomyocte cell line Conc′ >50% protection H2O2 Alamar blue” value in test [1] (cells in nM) was 0.001 to 0.1 nM. Besides, the IC50 turned out to be 3.41 ± 0.02 µM in test [2] and 54 µM at BuChE.
With `CCOC(=O)CCC1CNc2cccc(OC(=O)N(C)CC)c21.O=C(O)CC(O)(CC(=O)O)C(=O)O` (stereo not shown) [AN-871], the “Cardiomyocte cell line Conc′ >50% protection H2O2 Alamar blue” value in test [1] (setting [6]) is recorded as “no effect ≦ 100 μM”.
As for `CCCCN(C)C(=O)Oc1ccc2c(c1)N(C)CC2CCC(=O)OC` (stereo not shown) [AN-691, Methyl 3-(6-(butyl(methyl)carbamoyloxy)-1-methylindolin-3-yl)propanoate hydrochloride], the “Cardiomyocte cell line Conc′ >50% protection H2O2 Alamar blue” value in test [1] (setting [6]) amounted to 100000 nM. The IC50 in test [2] came out at 6.27 ± 0.05 µM; on BuChE it was 66.8 µM.
Turning to `CCN(C)C(=O)Oc1cccc2[nH]cc(CCN)c12.Cl` [AN-886, 2-(4-((ethyl(methyl)carbamoyl)oxy)-1H-indol-3-yl)ethanaminium hydrochloride], the “Cardiomyocte cell line Conc′ >50% protection H2O2 Alamar blue” value in test [1] (setting [6]) is “no effect ≦ 100 μM”.
Consider `COC(=O)CCC1CN(C)c2cc(OC(=O)N(C)c3ccc(OC)cc3)ccc21` (stereo not shown) [AN-687, Methyl 3-(6-((4-methoxyphenyl)(methyl)carbamoyloxy)-1-methylindolin-3-yl)propanoate hydrochloride], for which, in test [1] (setting [6]), the “Cardiomyocte cell line Conc′ >50% protection H2O2 Alamar blue” value is 100 to 10000 nM. Also, the IC50 in test [2] amounted to 2.24 ± 0.03 µM; on BuChE, 372 µM.
Regarding `CCN(C)C(=O)Oc1ccc2c(c1)NCC2CCC(=O)O` (stereo not shown) [AN-681, 3-(6-(Ethyl(methyl)carbamoyloxy)indolin-3-yl) propanoic acid hydrochloride], the Emax in the test on TNF-α, RAW 264.7 cells (Mus musculus, RAW264.7, 6 h, read-out: Reduction in TNF-α levels, RAW Macrophages % peak reduction) worked out at 29.2 ± 5.6%; in the test with NO, RAW 264.7 cells (Mus musculus, RAW264.7, 24 h, read-out: Reduction in NO levels, RAW Macrophages % peak reduction) it was 50.1 ± 4.1%. In addition, the “Reduction in TNF-α levels, RAW Macrophages range” value in the test on TNF-α, RAW 264.7 cells (setting [7]) is 0.1 to 100 nM. The IC50 in [2] was found to be 1.14 ± 0.09 µM; on BuChE it was 10 µM. For the same molecule, the “Reduction in NO levels by at >20%, BV2 Microglia range” value in test [3] is recorded as “None”. In addition, the “Reduction in NO levels by at >20%, RAW Macrophages range” value in the test on NO, RAW 264.7 cells (setting [7]) is given as 10^−1-100 nM. Besides, the “Reduction in TNF-α levels, BV2 Microglia range” value in test [4] is given as “None”.
With `COC(=O)CCC1CNc2cccc(OC(=O)N(C)c3ccc(OC)cc3)c21` (stereo not shown) [AN-819, 3-(3-methoxy-3-oxopropyl)-4-(((4-methoxyphenyl)(methyl)carbamoyl)oxy) indolin-1-ium hydrochloride], the IC50 came to 3.18 ± 0.2 µM in the test “Radical scavenging, Sin1”; 19 ± 0.6 µM in test [2]; 4.6 µM at BuChE. Besides, in test [1] (cells in nM), the “Cardiomyocte cell line Conc′ >50% protection H2O2 Alamar blue” value is 0.001 to 1 nM. Moreover, in test [5], the “ChE inhibition in plasma, muscle, and spleen” value is on record as “inhibited ChE”.
For `CCN(C)C(=O)Oc1cccc2c1C(CCC(=O)O)CN2` (stereo not shown) [AN-850, hydrochloride], in the test on TNF-α, RAW 264.7 cells (setting [7]), the “Reduction in TNF-α levels, RAW Macrophages range” value was “None”. Moreover, the IC50 in test [2] came out at 1.59 ± 0.39 µM; on AChE, 19 µM; at BuChE, 0.3 µM. Moreover, the “Reduction in NO levels, BV2 Microglia % peak reduction” value in test [3] was 37.6 ± 5.0%. In addition, the “Reduction in NO levels by at >20%, BV2 Microglia range” value in [3] is given as 10^−2-100 nM. Also, the “Reduction in TNF-α levels, BV2 Microglia % peak reduction” value in test [4] is recorded as 30.5 ± 0.6%. For the same molecule, in test [4], the “Reduction in TNF-α levels, BV2 Microglia range” value is 10^−3-100 nM. The “ChE inhibition in plasma, muscle, and spleen” value in test [5] was “inhibited ChE”.
On to `O=C(O)CCC1CNc2cccc(O)c21` (stereo not shown) [AN-834, 3-(4-hydroxyindolin-3-yl)propanoic acid hydrochloride], for which, in test [1] (cells in nM), the “Cardiomyocte cell line Conc′ >50% protection H2O2 Alamar blue” value is 0.1 to 10 nM. In addition, the half-inhibitory concentration (IC50) in test [2] turned out to be 1.44 ± 0.04 µM.
As for `COC(=O)CCC1CN(C)c2cccc(O)c21.Cl` (stereo not shown) [AN-833, Methyl 3-(4-hydroxy-1-methylindolin-3-yl)propanoate hydrochloride], the “Cardiomyocte cell line Conc′ >50% protection H2O2 Alamar blue” value in test [1] (setting [6]) is “no effec ≦ 100 μM”. In test [2], half-maximal inhibition (IC50) was put at 0.45 ± 0.03 µM.
As to `CCCCN(C)C(=O)Oc1ccc2c(c1)NCC2CCC(=O)OC` (stereo not shown) [AN-677, 3-(2-(Methoxycarbonyl)ethyl)-1-indoline-6-yl butylmethylcarbamate hydrochloride], in test [1] (cells in nM), the “Cardiomyocte cell line Conc′ >50% protection H2O2 Alamar blue” value lay in the range of 1 to 10 nM. Also, the figures for the IC50 (in [2]; at AChE; on BuChE) were 24.1 ± 0.18 µM, 62.3 µM and 404 µM, respectively.
In the case of `COC(=O)CCC1CNc2cccc(O)c21` (stereo not shown) [AN-832, Methyl 3-(4-hydroxyindolin-3-yl)propanoate hydrochloride], the IC50 in the test “Radical scavenging, Sin1” came out at 3.54 ± 0.21 µM; in test [2], 0.67 ± 0.05 µM. In the test with TNF-α, RAW 264.7 cells, the “inhibition of the level of TNF-α induced in RAW cells by LPS (FIG. 3)” value is reported as “inhibition”. In addition, the Emax in the test with TNF-α, RAW 264.7 cells (Mus musculus, RAW264.7, 6 h; read-out: Reduction in TNF-α levels, RAW Macrophages % peak reduction) came out at 39.2 ± 2.6%; in the test on NO, RAW 264.7 cells (Mus musculus, RAW264.7, 24 h; read-out: Reduction in NO levels, RAW Macrophages % peak reduction) it was 46.1 ± 3%. The “Reduction in NO levels by at >20%, BV2 Microglia range” value in test [3] was “None”. For the same molecule, in test [4], the “Reduction in TNF-α levels, BV2 Microglia % peak reduction” value is 38.2 ± 3.2%. For the same molecule, in test [4], the “Reduction in TNF-α levels, BV2 Microglia range” value is 10^−1-100 nM.
